Data on 52 compounds can be found in patent US20240246941A1, “SUBSTITUTED 4-(3-AMINOPROP-1-YL)AMINOQUINOLINE ANALOGS AS MODULATORS OF MELANOMA-ASSOCIATED ANTIGEN 11 UBIQUITIN LIGASE” (ST. JUDE CHILDREN'S RESEARCH HOSPITAL, INC., priority 2020, published 2024).

The test concerns the target MAGE-A11:PCF11 (Homo sapiens (Human), UniProt P43364). Nature of the test: TR-FRET single point screening at 15 μM. On the set-up: unit not given here. Type of test: binding. In outline:
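Competition TR-FRET: compounds at final 15 μM mixed with 200 nM FAM-PCF11_4, 5 nM GST-MAGEA11 and 5 nM Tb-anti-GST in Tris pH 7.5/MgCl2/BSA/DTT buffer, room temperature, 90 min. Emission ratio 520/490 nm (340 nm excitation) expressed as % inhibition relative to positive and negative controls.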

Setting [1] is: single point TR-FRET screening of quinoline compounds against MAGE-A11:PCF11, 15 μM.
The mark [2] stands for this setting: single point TR-FRET screening at 15 μM against MAGE-A11:PCF11.

MAGE-A11:PCF11, sequence (P43364 218-429): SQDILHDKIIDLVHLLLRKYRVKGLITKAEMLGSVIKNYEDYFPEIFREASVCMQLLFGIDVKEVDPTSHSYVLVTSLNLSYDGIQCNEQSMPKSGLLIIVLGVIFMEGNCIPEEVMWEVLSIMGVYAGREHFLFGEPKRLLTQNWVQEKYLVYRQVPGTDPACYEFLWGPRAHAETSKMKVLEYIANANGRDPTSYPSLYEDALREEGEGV

As for `FC(F)(F)Oc1ccc(CN(CCCNc2ccnc3cc(Cl)ccc23)Cc2ccccc2)cc1` [SJ000520460], the TR-FRET signal under setting [1] was 25.05. The same measure, in the same setting: for `Clc1ccc2c(NCCCN(Cc3ccccc3)Cc3cc4ccccc4o3)ccnc2c1` [SJ000520461] the value was 5.6. Same read-out and setting: for `Clc1ccc2c(NCCCN(Cc3ccccc3)Cc3cccnc3Br)ccnc2c1` [SJ000520462] the value was 9.715; for `Cc1csc(CN(CCCNc2ccnc3cc(Cl)ccc23)Cc2ccccc2)n1` [SJ000520463], −10.47. On the same count and under the same terms, to `FC(F)(F)Oc1cccc(CN(CCCNc2ccnc3cc(Cl)ccc23)Cc2ccccc2)c1` [SJ000520464] belongs 27.78. `Fc1cccc(C(F)(F)F)c1CN(CCCCNc1ccnc2cc(Cl)ccc12)Cc1ccccc1` [SJ000520465]: the TR-FRET signal under setting [2] was 28.75. On the same count and under the same terms, to `FC(F)(F)c1cc(CN(CCCCNc2ccnc3cc(Cl)ccc23)Cc2ccccc2)ccc1Cl` [SJ000520466] belongs 25.28.

`Fc1cccc(C(F)(F)F)c1CN(CCCNc1ccnc2cc(Cl)ccc12)Cc1ccccc1` [SJ000520467] returned a TR-FRET signal under setting [1] of 22.01. Same read-out and setting: to `CCCN(CCCNc1ccnc2cc(C(F)(F)F)ccc12)Cc1c[nH]c2ccccc12` [SJ000520468] belongs 16.16; to `CCCN(CCCNc1ccnc2cc(C(F)(F)F)ccc12)Cc1cn(C)c2ccccc12` [SJ000520469], 25.54; to `CCCN(CCCNc1ccnc2cc(C(F)(F)F)ccc12)Cc1ccccc1OC(F)(F)F` [SJ000520470], 5.934. On the same count and under the same terms, to `CCCN(CCCNc1ccnc2cc(C(F)(F)F)ccc12)Cc1cccc(C(F)(F)F)c1` [SJ000520471] belongs 13.02; to `CCCN(CCCNc1ccnc2cc(C(F)(F)F)ccc12)Cc1cccc2c1OCO2` [SJ000520472], 14.62. The same measure, in the same setting: to `CCCN(CCCNc1ccnc2cc(C(F)(F)F)ccc12)Cc1cccc(OC(F)(F)F)c1` [SJ000520473] belongs 9.085. Under setting [1], `CCCN(CCCNc1ccnc2cc(C(F)(F)F)ccc12)Cc1ccc(OC(F)(F)F)cc1` [SJ000520474] displayed a TR-FRET signal of 17.38. On to `CCCN(CCCNc1ccnc2cc(C(F)(F)F)ccc12)Cc1cc(F)ccc1OC` [SJ000520475], for which the TR-FRET signal under setting [1] worked out at 15.75. Still for that read-out and setting: to `CCCN(CCCNc1ccnc2cc(C(F)(F)F)ccc12)CCC(C)(C)C` [SJ000520476] belongs 32.33.

Under setting [1], `CCCCN(CCC)CCCNc1ccnc2cc(C(F)(F)F)ccc12` [SJ000520477] displayed a TR-FRET signal of 23.58.

Compound `CCCN(CCCNc1ccnc2cc(C(F)(F)F)ccc12)Cc1cc(Br)cs1` [SJ000520478] registered a TR-FRET signal under setting [1] of −9.243.

Compound `CCCN(CCCNc1ccnc2cc(C(F)(F)F)ccc12)Cc1cc2ccccc2o1` [SJ000520479] returned a TR-FRET signal under setting [1] of −20.41. Compound `CCCN(CCCNc1ccnc2cc(C(F)(F)F)ccc12)Cc1cc(OC)ccc1F` [SJ000520480] came in with a TR-FRET signal under setting [1] of 11.96. On to `CCCN(CCCNc1ccnc2cc(C(F)(F)F)ccc12)Cc1c(F)cccc1C(F)(F)F` [SJ000520481], for which, under setting [1], the TR-FRET signal was determined as 11.47. The same measure, in the same setting: to `CCCN(CCCNc1ccnc2cc(C(F)(F)F)ccc12)Cc1cc2ccccc2s1` [SJ000520482] belongs 13.01. On the same count and under the same terms, for `CCCN(CCCNc1ccnc2cc(C(F)(F)F)ccc12)Cc1csc2ccccc12` [SJ000520483] the value was 19.45; for `CCCN(CCCNc1ccnc2cc(C(F)(F)F)ccc12)Cc1nc2ccccc2s1` [SJ000520484], 7.404; for `CCCN(CCCNc1ccnc2cc(C(F)(F)F)ccc12)Cc1cc(OC(F)(F)F)ccc1OC` [SJ000520485], 5.6. Same read-out and setting: to `CCCN(CCCNc1ccnc2cc(C(F)(F)F)ccc12)Cc1cc(C(F)(F)F)ccc1OC` [SJ000520486] belongs 8.188; to `O=[N+]([O-])c1ccc(CNCCCNc2ccnc3cc(Cl)ccc23)s1` [SJ000520912], 6.284. Under setting [1], `Clc1ccc2c(NCCCNCc3ccoc3)ccnc2c1` [SJ000520913] yielded a TR-FRET signal of −11.15. Under setting [2], `COc1ccc2nc3cc(Cl)ccc3c(NCCCNCc3ccc4[nH]ccc4c3)c2c1` [SJ000520914] displayed a TR-FRET signal of −184.2.

As for `COc1ccc2nc3cc(Cl)ccc3c(NCCCNCc3c(F)cccc3OC)c2c1` [SJ000520915], under setting [2], the TR-FRET signal is given as −298.8.

Take `COc1ccc2nc3cc(Cl)ccc3c(NCCCNCc3ccoc3)c2c1` [SJ000520916]: the TR-FRET signal under setting [2] is −299.4. On the same count and under the same terms, to `CCCN(CCC)CCCNc1c2ccc(Cl)cc2nc2ccc(OC)cc12` [SJ000520917] belongs −288.2.

In turn, `CCCN(CCCNc1c2ccc(Cl)cc2nc2ccc(OC)cc12)Cc1ccncc1` [SJ000520918] yielded a TR-FRET signal under setting [1] of −1.797. For `CCCN(CCCNc1c2ccc(Cl)cc2nc2ccc(OC)cc12)Cc1ccccn1` [SJ000520919], the TR-FRET signal under setting [2] is −146.2.

In the case of `CCCN(CCCNc1c2ccc(Cl)cc2nc2ccc(OC)cc12)Cc1cccs1` [SJ000520920], under setting [2], the TR-FRET signal is listed as −164.1. In turn, `CCCN(CCCNc1c2ccc(Cl)cc2nc2ccc(OC)cc12)Cc1sccc1C` [SJ000520921] registered a TR-FRET signal under setting [1] of −83.81. On to `CCCN(CCCNc1c2ccc(Cl)cc2nc2ccc(OC)cc12)Cc1ccsc1` [SJ000520922], for which the TR-FRET signal under setting [2] is −258. Still for that read-out and setting: for `CCCN(CCCNc1c2ccc(Cl)cc2nc2ccc(OC)cc12)Cc1ccc[nH]1` [SJ000520923] the value was −271.

In turn, `CCCN(CCCNc1c2ccc(Cl)cc2nc2ccc(OC)cc12)Cc1ccc(Br)s1` [SJ000520924] displayed a TR-FRET signal under setting [1] of −56.45.

Consider `CCCN(CCCNc1c2ccc(Cl)cc2nc2ccc(OC)cc12)Cc1ccccc1` [SJ000520925], for which the TR-FRET signal under setting [2] is reported as −127.9. Turning to `CCCN(CCCNc1c2ccc(Cl)cc2nc2ccc(OC)cc12)Cc1ccccc1O` [SJ000520926], under setting [1], the TR-FRET signal is −91.84.

`CCCN(CCCNc1c2ccc(Cl)cc2nc2ccc(OC)cc12)Cc1ccc(C)s1` [SJ000520927]: the TR-FRET signal under setting [2] is recorded as −124.8. Under setting [1], `CCCN(CCCNc1c2ccc(Cl)cc2nc2ccc(OC)cc12)Cc1ccccc1C(F)(F)F` [SJ000520928] gave a TR-FRET signal of 14.17.

Turning to `CCCN(CCCNc1c2ccc(Cl)cc2nc2ccc(OC)cc12)Cc1ccc(Br)o1` [SJ000520929], the TR-FRET signal under setting [2] is −137.3. The compound `CCCN(CCCNc1c2ccc(Cl)cc2nc2ccc(OC)cc12)Cc1cccc(OC)c1O` [SJ000520930] had a TR-FRET signal under setting [1] of −81.96. The same measure, in the same setting: for `CCCN(CCCNc1c2ccc(Cl)cc2nc2ccc(OC)cc12)Cc1cc(F)ccc1OC` [SJ000520931] the value was 1.847.

The compound `CCCN(CCCNc1c2ccc(Cl)cc2nc2ccc(OC)cc12)Cc1ccc(C)o1` [SJ000520932] registered a TR-FRET signal under setting [1] of 0.9854. `CCCN(CCCNc1c2ccc(Cl)cc2nc2ccc(OC)cc12)Cc1cc(OC)ccc1O` [SJ000520933] returned a TR-FRET signal under setting [2] of −150.8. In turn, `CCCN(CCCNc1c2ccc(Cl)cc2nc2ccc(OC)cc12)Cc1c(C)cc(C)cc1C` [SJ000520934] displayed a TR-FRET signal under setting [1] of −46.32. Compound `CCCN(CCCNc1c2ccc(Cl)cc2nc2ccc(OC)cc12)Cc1ccco1` [SJ000520935] yielded a TR-FRET signal under setting [2] of −202.6.

For `CCCN(CCCNc1c2ccc(Cl)cc2nc2ccc(OC)cc12)CC1CC1` [SJ000520936], the TR-FRET signal under setting [2] is recorded as −271.4.
